These results are taken from US7511133B2, “Adenosine A3 receptor agonists” (King Pharmaceuticals Research and Development, Inc., priority 2003, dated 2009).

The target in one data set is T1, human A3 receptors (Homo sapiens, UniProt P0DMS8).
T1 construct: expressed in transfected cells; host or cells: CHO cells
T1 sequence (P0DMS8 1-318): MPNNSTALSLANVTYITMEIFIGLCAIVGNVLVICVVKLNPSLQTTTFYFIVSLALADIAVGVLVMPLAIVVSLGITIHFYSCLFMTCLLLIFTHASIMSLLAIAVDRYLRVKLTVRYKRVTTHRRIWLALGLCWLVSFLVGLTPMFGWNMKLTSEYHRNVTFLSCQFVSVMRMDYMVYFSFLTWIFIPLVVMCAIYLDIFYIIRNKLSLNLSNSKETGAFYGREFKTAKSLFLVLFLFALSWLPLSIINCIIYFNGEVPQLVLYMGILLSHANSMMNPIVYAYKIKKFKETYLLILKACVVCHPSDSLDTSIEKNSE
In words: [^3H] MRE3008F20 binding to human A3 receptors expressed in CHO cells (antagonist radioligand). The conditions noted are these: human A3, CHO cells, antagonist radioligand; read-out: [^3H] MRE3008F20 binding to human A3 receptors expressed in CHO cells Ki. The method, then:
(§1) Binding assay methodology for the human data with antagonist radioligands. […] Arch. Pharmacol. 357: 1-9, (1998). The cells were grown adherently and maintained in Dulbecco's Modified Eagles Medium with nutrient mixture F12 (DMEM/F12) without nucleosides, containing 10% fetal calf serum, penicillin (100 U/ml), streptomycin (100 μg/ml), L-glutamine (2 mM) and Geneticin (G418, 0.2 mg/ml) at 37° C. in 5% CO2/95% air. Cells were split 2 or 3 times weekly at a ratio between 1:5 and 1:20. For membrane preparation the culture medium was removed and the cells were washed with PBS and scraped off T75 flasks in ice-cold hypotonic buffer (5 mM Tris HCl, 2 mM EDTA, pH 7.4). The cell suspension was homogenized with Polytron and the homogenate was spun for 10 min at 1,000×g. The supernatant was then centrifuged for 30 min at 100,000×g. The membrane pellet was resuspended in 50 mM Tris HCl buffer pH 7.4 (for A3 adenosine receptors: 50 mM Tris HCl, 10 mM MgCl2, 1 mM EDTA) and incubated with 3 UI/ml of Adenosine deaminase for 30 min at 37° C. Then the suspension was frozen at −80° C. HEK 293 cells transfected with the human recombinant A2B adenosine receptor were obtained from Receptor Biology, Inc. (Beltsville, Md., USA).
Binding of [^3H]-MRE 3008F20 to CHO cells transfected with the human recombinant A3 adenosine receptors was performed according to Varani et al., 2000. Competition experiments were carried out in duplicate in a final volume of […] in test tubes containing 1 nM [^3H]-MRE 3008F20, 50 mM Tris HCl buffer, 10 mM MgCl2, 1 mM EDTA pH 7.4 and 100 μl of diluted membranes (50 μg of protein/assay) and at least 8-10 different concentrations of examined antagonists. Incubation time was 120 min at 4° C., according to the results of previous time-course experiments.

The target of a further data set is T2, human A1 receptors (Homo sapiens, UniProt P30542).
T2 construct: expressed in transfected cells; host or cells: CHO cells
T2 sequence (P30542 1-326): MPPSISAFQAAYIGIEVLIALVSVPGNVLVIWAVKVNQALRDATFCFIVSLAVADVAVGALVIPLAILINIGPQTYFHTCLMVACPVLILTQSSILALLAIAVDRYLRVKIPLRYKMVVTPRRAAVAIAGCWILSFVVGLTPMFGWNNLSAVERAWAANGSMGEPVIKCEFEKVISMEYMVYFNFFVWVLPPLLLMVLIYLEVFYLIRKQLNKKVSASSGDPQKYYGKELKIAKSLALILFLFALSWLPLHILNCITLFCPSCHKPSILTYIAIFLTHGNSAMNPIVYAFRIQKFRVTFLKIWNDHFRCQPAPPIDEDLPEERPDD
Put plainly: [^3H] DPCPX binding to human A1 receptors expressed in CHO cells (antagonist radioligand). The conditions noted are these: human A1, CHO cells, antagonist radioligand; read-out: [^3H] DPCPX binding to human A1 receptors expressed in CHO cells Ki. The method, then: as §1, with “Pharmacol. 357: 1-9, (1998).” left out
Displacement experiments were performed for 120 min at 25° C. in 0.2 ml of 50 mM Tris HCl buffer pH 7.4 containing 1 nM [3H]-DPCPX, diluted membranes (50 μg of protein/assay) and at least 6-8 different concentrations of antagonists studied. Non-specific binding was determined in the presence of 10 μM of CHA and this was always ≦10% of the total binding.

The target in another data set is T3, human A2A receptors (Homo sapiens, UniProt P29274).
T3 construct: expressed in transfected cells; host or cells: CHO cells
In words: [^3H] SCH58261 binding to human A2A receptors expressed in CHO cells (antagonist radioligand). The conditions noted are these: human A2A, CHO cells, antagonist radioligand; read-out: [^3H] SCH58261 binding to human A2A receptors expressed in CHO cells Ki. The method, then: as §1
Binding of [^3H]-SCH 58261 to CHO cells transfected with the human recombinant A2A adenosine receptors (50 μg of protein/assay) was performed using 0.2 ml 50 mM Tris HCl buffer, 10 mM MgCl2 pH 7.4 and at least 6-8 different concentrations of antagonists studied for an incubation time of 30 min at 25° C.

The target in data set [1] is T4, human A3 adenosine receptors (Homo sapiens, UniProt P0DMS8).
T4 sequence (P0DMS8 1-318): T1 sequence (P0DMS8 1-318)

The target of data set [2] is T5, human A2A adenosine receptors (Homo sapiens, UniProt P29274).
T5 construct: expressed in transfected cells; host or cells: CHO cells
Put plainly: Displacement of [^3H]CGS21680 binding, human A2A adenosine receptors in CHO cells (agonist radioligand). The conditions noted are these: human A2A, CHO cells, [^3H]CGS21680; read-out: Ki(A2A). Displacement of [^3H]CGS21680 binding to human A2A adenosine receptors exp. in CHO cells.

For a further data set, the target named is T6, human hA2B receptors (Homo sapiens, UniProt P29275).
T6 construct: host or cells: HEK 293 cells
T6 sequence (P29275 1-332): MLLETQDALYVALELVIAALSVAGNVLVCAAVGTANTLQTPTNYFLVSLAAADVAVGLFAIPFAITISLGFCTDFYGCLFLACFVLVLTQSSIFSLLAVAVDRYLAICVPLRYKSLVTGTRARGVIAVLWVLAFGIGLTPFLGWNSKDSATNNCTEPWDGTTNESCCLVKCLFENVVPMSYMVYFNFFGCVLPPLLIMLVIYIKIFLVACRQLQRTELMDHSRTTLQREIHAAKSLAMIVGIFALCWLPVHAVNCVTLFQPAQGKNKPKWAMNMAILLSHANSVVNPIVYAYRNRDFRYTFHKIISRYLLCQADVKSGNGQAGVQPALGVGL
Put plainly: [^3H] DPCPX binding to human hA2B receptors expressed in HEK293 cells (antagonist radioligand). As to conditions: human A2B, HEK293 cells, antagonist radioligand; read-out: [^3H] DPCPX binding to human hA2B receptors expressed in HEK293 cells Ki. The method, then:
as §1
Competition experiments of [^3H]-DPCPX to HEK-293 cells transfected with the human recombinant A^2B adenosine receptor were performed for 60 min at 25° C. in 0.1 ml of 50 mM Tris HCl buffer, 10 mM MgCl2, 1 mM EDTA, 0.1 mM benzamidine pH 7.4, 2 IU/ml adenosine deaminase containing 34 nM [^3H]-DPCPX, diluted membranes (20 μg of protein/assay) and at least 6-8 different concentrations of selected compounds.

Data set [3] deals with T7, human A1 adenosine receptors (Homo sapiens, UniProt P30542).
T7 sequence (P30542 1-326): T2 sequence (P30542 1-326)
Put plainly: Displacement of [^3H]CHA binding, human A1 adenosine receptors in CHO cells (agonist radioligand).

The next data set has as its system A3 receptor. The conditions noted are these: cited from earlier work.

The structures appear in SMILES notation.

T3 sequence (P29274 whole entry): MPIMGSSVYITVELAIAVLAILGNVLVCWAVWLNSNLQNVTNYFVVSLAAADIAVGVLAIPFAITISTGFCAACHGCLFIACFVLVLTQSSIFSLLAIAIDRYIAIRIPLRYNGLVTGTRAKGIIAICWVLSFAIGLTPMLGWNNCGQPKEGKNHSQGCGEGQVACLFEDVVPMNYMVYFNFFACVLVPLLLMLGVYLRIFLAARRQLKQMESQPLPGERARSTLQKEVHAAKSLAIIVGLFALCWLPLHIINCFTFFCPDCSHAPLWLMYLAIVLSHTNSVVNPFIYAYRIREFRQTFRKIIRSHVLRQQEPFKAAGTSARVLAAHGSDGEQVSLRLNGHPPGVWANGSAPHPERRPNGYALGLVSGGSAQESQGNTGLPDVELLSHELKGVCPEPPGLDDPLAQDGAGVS
T5 sequence (P29274 whole entry): as above

The term Ki denotes a dissociation constant, usually derived from enzyme kinetics or from competition with a known ligand. As usually defined, the melting point is the temperature of the solid-liquid transition. `CCNC(=O)[C@H]1O[C@@H](n2cnc3c(NC(=O)Nc4ccc(S(=O)(=O)NC56CC7CC(CC(C7)C5)C6)cc4)ncnc32)[C@H](O)[C@@H]1O` [Compound 93, 1-Deoxy-1-[6-[[[[4-[N-(adamantan-1-yl)sulfonyl]phenyl]amino]carbonyl]-amino]-9H-purin-9-yl]-N-ethyl-β-D-ribofuranuronamide] gave a melting point of 192 °C. Besides, the Ki at human A3 receptors was found to be 310 nM. In addition, on human A1 receptors, the Ki is greater than 1000 nM. The Ki at human A2A receptors was greater than 1000 nM. Further, the Ki in data set [1] was 35 nM. In addition, the A1/A3 in data set [1] (ratio Ki(A1)/Ki(A3), agonist radioligands) turned out to be 7.5. Also, the Ki in data set [2] is greater than 1000 nM. Moreover, the Ki on human hA2B receptors was greater than 1000 nM. Moreover, in data set [3], the Ki came out at 240 nM.
Regarding `CNC(=O)[C@H]1O[C@@H](n2cnc3c(NCc4cccc(I)c4)ncnc32)[C@H](O)[C@@H]1O` [IB-MECA, N^6-(3-iodo-benzyl)-adenosine-5′-N-methyl-uronamide], in the data set on A3 receptor, the “selective for the A3 receptor versus either the A1 or A2A receptors” value is 50 fold.
